The source of these data is patent US8501733B2, “Spiroaminodihydrothiazine derivatives” (Eisai R&D Management Co., Ltd., priority 2008, dated 2013).

This test has as its system Aβ42. Kind of test: Quantification of Aβ peptide in culture of neurons from rat fetus brain (Aβ ELISA). The settings on record: Primary cortical neuron, 72 h, IC50 for decrease in the Aβ42 concentration in the medium, three days after addition of the compound, read-out: Aβ42 production reducing effect. It is filed as cell-based. On the procedure:
Quantification of Aβ Peptide in Culture of Neurons from Rat Fetus Brain
(1) Rat Primary Neuronal Culture
Primary neuronal cultures were prepared from the cerebral cortex of embryonic day 18 Wistar rats (Charles River Japan, Yokohama, Japan). Specifically, the embryos were aseptically removed from pregnant rats under ether anesthesia. The brain was isolated from the embryo and immersed in an ice-cold L-15 medium (such as Invitrogen Corp. Cat #11415-064, Carlsbad, Calif., USA, or SIGMA L1518). The cerebral cortex was collected from the isolated brain under a stereoscopic microscope. The cerebral cortex fragments collected were enzymatically treated in an enzyme solution containing 0.25% trypsin (Invitrogen Corp. Cat #15050-065, Carlsbad, Calif., USA) and 0.01% DNase (Sigma D5025, St. Louis, Mo., USA) at 37° C. for 30 minutes to disperse the cells. Here, the enzymatic reaction was stopped by adding inactivated horse serum to the solution. The enzymatically treated solution was centrifuged at 1,500 rpm for five minutes to remove the supernatant. 5 to 10 ml of a medium was added to the resulting cell mass. Neurobasal medium (Invitrogen Corp. Cat #21103-049, Carlsbad, Calif., USA) supplemented with 2% B27 supplement (Invitrogen Corp. Cat #17504-044, Carlsbad, Calif., USA), 25 μM 2-mercaptoethanol (2-ME, WAKO Cat #139-06861, Osaka, Japan), 0.5 mM L-glutamine (Invitrogen Corp. Cat #25030-081, Carlsbad, Calif., USA), and Antibiotics-Antimycotics (Invitrogen Corp. Cat #15240-062, Carlsbad, Calif., USA) was used as the medium (Neurobasal/B27/2-ME). However, the above Neurobasal medium not supplemented with 2-ME (Neurobasal/B27) was used for the assay. The cells were redispersed by mild pipetting of the cell mass to which the medium was added. The cell dispersion was filtered through a 40-μm nylon mesh (Cell Strainer, Cat #35-2340, Becton Dickinson Labware, Franklin Lakes, N.J., USA) to remove the remaining cell mass, and thus a neuronal cell suspension was obtained. The neuronal cell suspension was diluted with the medium and then plated in a volume of 100 μl/well at an initial cell density of 5×10^5 cells/cm^2 in a 96-well polystyrene culture plate pre-coated with poly-L or D-lysine (Falcon Cat #35-3075, Becton Dickinson Labware, Franklin Lakes, N.J., USA coated with poly-L-lysine using the method shown below, or BIOCOAT™ cell environments Poly-D-lysine cell ware 96-well plate, Cat #35-6461, Becton Dickinson Labware, Franklin Lakes, N.J., USA). Poly-L-lysine coating was carried out as follows. 100 μg/ml of a poly-L-lysine (SIGMA P2636, St. Louis, Mo., USA) solution was aseptically prepared with a 0.15 M borate buffer (pH 8.5). […] of the solution was added to the 96-well polystyrene culture plate and incubated at room temperature for one or more hours or at 4° C. overnight or longer. Thereafter, the coated 96-well polystyrene culture plate was washed with sterile water four or more times, and then dried or rinsed with, for example, sterile PBS or medium, and used for cell plating. The plated cells were cultured in the incubator at 37° C. in 5% CO2-95% air for one day. Then, the total amount of the medium was replaced with a fresh Neurobasal/B27/2-ME medium, and then the cells were cultured for further three days.
The drug was added to the culture plate on Day 4 of culture as follows. The total amount of the medium was removed from the wells, and 180 μl/well of Neurobasal medium not containing 2-ME and containing 2% B-27 (Neurobasal/B27) was added thereto. […]
On the technique in general: ELISA stands for enzyme-linked immunosorbent assay.

Consider `N#Cc1ccc(C(=O)Nc2ccc3c(c2)C2(CCO3)CCSC(N)=N2)nc1` (stereo not drawn) [Compound 11, (−)—N-(2′-amino-2,3,5′,6′-tetrahydrospiro[chromene-4,4′-[1,3]thiazin]-6-yl)-5-cyanopyridine-2-carboxamide], for which the IC50 is 53 nM. For `NC1=NC2(CCOc3ccc(NC(=O)c4ccc(C(F)(F)F)cn4)cc32)CCS1` (centres unmarked) [Compound 12, N-(2′-amino-2,3,5′,6′-tetrahydrospiro[chromene-4,4′-[1,3]thiazin]-6-yl)-5-trifluoromethylpyridine-2-carboxamide], the IC50 came out at 71 nM.

As for `NC1=NC2(CCOc3ccc(NC(=O)c4ncc(Br)cn4)cc32)CCS1` (centres unmarked) [Compound 15, N-(2′-amino-2,3,5′,6′-tetrahydrospiro[chromene-4,4′-[1,3]thiazin]-6-yl)-5-bromopyrimidine-2-carboxamide], the IC50 came to 63 nM.

Take `NC1=NC2(CCOc3ccc(NC(=O)c4ccc(Br)cn4)cc32)CCS1` (centres unmarked) [Compound 16, N-(2′-amino-2,3,5′,6′-tetrahydrospiro[chromene-4,4′-[1,3]thiazin]-6-yl)-5-bromopyridine-2-carboxamide]: the IC50 was found to be 27 nM.

For `NC1=NC2(CCOc3ccc(NC(=O)c4ncc(Cl)cc4Cl)cc32)CCS1` (centres unmarked) [Compound 18, N-(2′-amino-2,3,5′,6′-tetrahydrospiro[chromene-4,4′-[1,3]thiazin]-6-yl)-3,5-dichloropyridine-2-carboxamide], the IC50 was determined as 47 nM.
